SMILES strings stand for the structures. pKi: −log10 of the molar value. Where two headings read alike, the source gives them in different places.

In one test the target is α-synuclein aggregates (Homo sapiens, UniProt P37840). Briefly: in vitro competition binding assay with [3H] positive reference compound #1 on α-synuclein aggregates. The method, then: In order to assess relative binding affinities of the test compounds for aggregated α-synuclein, competition assays were set up with a radiolabeled molecule already known to bind to α-synuclein fibrils and non-radiolabeled test compounds. In order to induce its aggregation, α-synuclein was incubated in phosphate buffered saline (PBS, pH 7.4) at 37° C. for three days with shaking (1,400 rpm). Competitive binding assays were carried out in 12×75 mm borosilicate glass tubes. […] The mixture was incubated for 120 min at 37° C., and the bound and the free radioactivity were separated by vacuum filtration through Whatman GF/B filters using a Brandel M-24R cell harvester, followed by washing with PBS buffer three times. […] IC50 values were determined by a non-linear, least squares regression analysis.

Test [1] deals with amyloid-β peptide of Alzheimer's disease. Briefly: binding affinity for amyloid-β peptide (data not shown).
The mark [2] stands for this setting: competition against [3H] positive reference compound #1 (100-200 nM), 120 min at 37° C., PBS, Ki by Cheng-Prusoff from IC50.

`Oc1ccc(-c2cn(-c3ccc(O)c(O)c3)nn2)cc1O` [SA-68] showed a pKi on α-synuclein aggregates (setting [2]) of 6.16.

For `Oc1ccc(-c2cnc(-c3ccc(O)c(O)c3)o2)cc1O` [SA-70], the pKi on α-synuclein aggregates (setting [2]) is 6.18.

With `Oc1ccc(-c2nsc(-c3ccc(O)c(O)c3)n2)cc1O` [SA-57], the pKi on α-synuclein aggregates (setting [2]) was 6.91.

On α-synuclein aggregates (setting [2]), `Oc1ccc(-c2cc(-c3ccc(O)c(O)c3)c(-c3ccc(O)c(O)c3)s2)cc1O` [SA-61] showed a pKi of 5.51.

Take `Oc1ccc(-c2nc3cc(O)c(O)cc3o2)cc1O` [SA-54]: on α-synuclein aggregates (setting [2]), the negative-log Ki (pKi) was 5.79.

Consider `Oc1ccc(-c2nnc(-c3ccc(O)c(O)c3)o2)cc1O` [SA-67], for which, at α-synuclein aggregates (setting [2]), the pKi is 6.33.

For the molecule `Oc1ccc(-c2cnc(-c3ccc(O)c(O)c3)s2)cc1O` [SA-64], the pKi at α-synuclein aggregates is 7.05. Also, the “binding affinity for the amyloid-β peptide” value in test [1] is given as “does not show significant binding affinity”.

In turn, `Oc1ccc(-c2nnc(-c3cc(O)c(O)cc3Br)o2)cc1O` [SA-55] gave a negative-log Ki (pKi) on α-synuclein aggregates of 6.43.
